# According to BindingDB's records for doi:10.1021/acs.jmedchem.7b01490 (Astrazeneca, 2018):
# Assay: Inhibition of CHK1 in human HT29 cells assessed as abrogation of camptothecin-induced G2/M phase arrest
row,SMILES,EC50
1,NC(=O)c1cnc(N[C@H]2CCCN[C@@H]2CCO)c2cc(-c3ccccc3)sc12,3.3 µM
2,NC(=O)c1cnc(N(CCO)[C@H]2CCCNC2)c2cc(-c3ccccc3)sc12,3.7 µM
3,CCN(c1ncc(C(N)=O)c2sc(-c3ccccc3)cc12)[C@H]1CCCNC1,0.11 µM
4,CN(c1ncc(C(N)=O)c2sc(-c3ccccc3)cc12)[C@H]1CCCNC1,0.84 µM
5,NC(=O)c1cnc(O[C@H]2CCCNC2)c2cc(-c3ccccc3)sc12,0.34 µM
6,NC(=O)c1cnc(N[C@H]2CCCNC2)c2cc(-c3ccccc3)oc12,0.39 µM
7,NC(=O)c1ccc(N[C@H]2CCCNC2)c2cc(-c3ccc(Cl)cc3)[nH]c12,0.07 µM
8,NC(=O)c1ccc(N[C@H]2CCCNC2)c2cc(-c3ccccc3)[nH]c12,0.053 µM
9,NC(=O)c1cnc(N[C@H]2CCCNC2)c2cc(-c3cnn(Cc4ccccc4)c3)sc12,0.06 µM
10,Cn1cc(-c2cc3c(N[C@H]4CCCNC4)ncc(C(N)=O)c3s2)cn1,0.15 µM
11,NC(=O)c1cnc(N[C@H]2CCCNC2)c2cc(-c3cn[nH]c3)sc12,2.3 µM
12,NC(=O)c1cnc(N[C@H]2CCCNC2)c2cc(-n3ccnc3)sc12,10 µM
13,NC(=O)c1cnc(N[C@H]2CNCC[C@@H]2O)c2cc(-c3ccccc3)sc12,0.41 µM
14,NC(=O)c1cnc(SC2CCCNC2)c2cc(-c3ccccc3)sc12 (stereo not given),0.21 µM
15,CN1CCC[C@H](Nc2ncc(C(N)=O)c3sc(-c4ccccc4)cc23)C1,0.88 µM

# Stronger by EC50, values ahead:
row,EC50,SMILES
1,0.05 µM,C[C@@H]1NCCC[C@@H]1Nc1ncc(C(N)=O)c2sc(-c3ccccc3)cc12
2,0.04 µM,NC(=O)c1ccc(N[C@H]2CCCNC2)c2cc(-c3ccc(F)cc3)[nH]c12
3,0.03 µM,C[C@@H]1CC[C@H](Nc2ncc(C(N)=O)c3sc(-c4ccccc4)cc23)CN1
4,0.03 µM,NC(=O)c1ccc(N[C@H]2CCCNC2)c2cc(-c3cccc(F)c3)[nH]c12
5,0.026 µM,"NC(=O)c1cnc(N[C@H]2CCCNC2)c2cc(-c3ccccc3)sc12 [(S)-2-phenyl-4-(piperidin-3-ylamino)thieno[3,2-c]pyridine-7-carboxamide]"
6,0.024 µM,NC(=O)c1cnc(N[C@H]2CCCNC2)c2cc(-c3cccc(F)c3)sc12
7,0.012 µM,NC(=O)c1cnc(N[C@H]2CCCNC2)c2cc(-c3cccs3)sc12
8,0.01 µM,C[C@@H]1CC[C@H](Nc2ncc(C(N)=O)c3sc(-c4ccccc4)cc23)[C@H](C)N1
9,0.01 µM,NC(=O)c1cnc(N[C@H]2CCCNC2)c2cc(-c3ccsc3)sc12
10,0.008 µM,C[C@H]1NCCC[C@@H]1Nc1ncc(C(N)=O)c2sc(-c3ccccc3)cc12
